{"source": "paper PMC5522267", "about": "“Targeting PEPT1: a novel strategy to improve the antitumor efficacy of doxorubicin in human hepatocellular carcinoma therapy” (Oncotarget, 2017)", "key": {"Bel-7402 [1]": {"test_system": "Bel-7402", "experiment": "cells", "format": "cell-based, human", "settings": "Homo sapiens", "description": "(§1) Cells in the growth log phase were seeded in 96-well plate (200 ul/well) with density 8×10^3/well for 24 hours, then the drugs were added. The concentration of Doxorubicin-tripeptide conjugate was 0.005 mg/ml, 0.01 mg/ml, 0.02 mg/ml, 0.04 mg/ml, 0.06 mg/ml in turn, while Doxorubicin followed by 0.005 mg/ml, 0.01 mg/ml, 0.02 mg/ml, 0.04 mg/ml, 0.06 mg/ml with a same dosing volume 100 μl. Each concentration group included five equal wells and was provided with a control well of medium alone as a negative control. Add 20 μl of MTT Reagent ( 5 mg/ml, Sigma) to each well, including controls and continue to be incubated at 37°C for 4 hours. Remove the supernatant, drop plus DMSO (200 μl/well) and measure the OD value in each well, including the blanks, at 490 nm by a Multi-Mode Reader (BioTek, Synergy 2, USA). To calculate the inhibitory rate and the half maximal inhibitory concentration (IC50) according to the formula: Inhibitory rate =(1-( the dosing group OD/the control group OD )) × 100%, IC50 = lg^-1 (Xm-i (ΣP-0.5)) (Xm: the logarithm of maximum concentration, I: the logarithm of maximum dose/ adjacent dose, P: the sum of each group inhibitory rate, Pm: the maximum inhibitory rate, Pn: the minimum inhibitory rate )."}, "Caco2 [2]": {"test_system": "Caco2", "experiment": "cells", "format": "cell-based, human", "settings": "Homo sapiens, Caco-2", "description": "as §1"}, "HepG2 [3]": {"test_system": "HepG2", "experiment": "cells", "format": "cell-based, human", "settings": "Homo sapiens, HepG2, given as fraction, read-out: Inhibitory effect by MTT", "description": "as §1"}, "Bel-7402 [4]": {"test_system": "Bel-7402", "experiment": "Drug concentration in tumor cells by HPLC, Bel-7402", "format": "cell-based, human", "settings": "incubated 2 hours", "description": "(§2) When the density of HCC cells reached to 3 × 10^6/ml, they were trypsinized and centrifuge (4°C, 800rpm, 5min), then discarded the supernatant, dropping medium 3 ml and evenly mixed. Cell suspension was divided into three groups (control group, Doxorubicin-tripeptide conjugate group and Doxorubicin group). The drug concentration was 0.01 mg/ml for cultured 2 hours avoiding light. Then the cells obtained by centrifugation were proceeded by the following steps: washed 3 times with 1 ml normal saline, added 0.5 ml ultra pure water (Millipore), broken by ultrasonic wave, drooped in acetonitrile (Tianjin Concord Technology Co. Ltd, China) 0.5 ml, mixed, ultrasonic oscillation for 10 mins, centrifuge (1200 rpm, 15 min), take the supernatant, filtration with filter membrane, take 20 μl for HPLC analysis (Agilent 1100 HPLC system, USA).\n(§3) Chromatographic conditions were as follows: chromatographic column: DIONEX Acclaim 120 C18 (2.1 × 250 mm, 5 μm 120A), Mobile phase: Acetonitrile-0.2%NaH2PO4 aqueous solution (35: 65), Velocity: 0.35 ml/min, column temperature: 30°C, DAD, 254 nm, sample size: 20 μl. […] According to the chromatographic condition, the retention time (tR), peak position time, chromatographic behavior, resolution (R), the minimum detectable concentration and the intracellular drug concentration of these two drugs were detected in turn."}, "HepG2 [5]": {"test_system": "HepG2", "experiment": "Drug concentration in tumor cells by HPLC, HepG2", "format": "cell-based, human", "settings": "incubated 2 hours", "description": "as §2, §3"}, "Caco2 [6]": {"test_system": "Caco2", "experiment": "Drug concentration in tumor cells by HPLC, Caco2", "format": "cell-based, human", "settings": "incubated 2 hours"}, "Bel-7402 HCC": {"test_system": "Bel-7402 HCC", "settings": "for Inhibition rate: from tumor weight vs control", "excerpt": "(§4) An animal model of HCC cells (Bel-7402, HepG2) transplanted into nude mice was established according to the method described in ref. 10."}, "HepG2 HCC": {"test_system": "HepG2 HCC", "excerpt": "as §4"}, "[7]": {"experiment": "Cardiac indexes, HepG2 HCC mice", "format": "in vivo, nude mice", "settings": "low dose, after treatment"}, "[8]": {"experiment": "Cardiac indexes, Bel-7402 HCC mice", "format": "in vivo, nude mice", "settings": "high dose, after treatment"}, "[9]": {"experiment": "Blood routine, HepG2 HCC mice", "format": "in vivo, nude mice", "settings": "low dose, after treatment"}, "[10]": {"experiment": "Blood routine, Bel-7402 HCC mice", "format": "in vivo, nude mice", "settings": "high dose, after treatment"}, "[11]": {"settings": "HCC mice, both dose groups", "method": "After the HCC mice model was established, the nude mice were randomly assigned to three groups: Group A (control group: administration with normal saline 0.2 ml every time), group B (administration with Doxorubicin-tripeptide conjugate) and group C (administration with Doxorubicin). […] Treatment was conducted every 3 weeks for 5 weeks. Pay close attention to the general condition of the mice and their subcutaneous tumor and draw survivorship curve. The mice were weighed every 3 days and tumor volume was measured with a digital caliper using the formula: volume = (1/6).π. length × width × height. At the end of the experiment, tumor weight and volume was measured to obtained the tumor inhibitory rate and actual volume, which were calculated by the follow formula respectively: tumor inhibitory rate = (The average tumor weight of control group-experimental group)/control group × 100 %. volume = (1/6).π. length × width × height.\nAfter the course of administration, mice were sacrificed, then the blood was collected to detect relevant indexes including quantitative serum protein, blood routine, myocardial enzymes (CK, CK-MB, LDH, AST), GSH-PX, MDA and SOD, the bone marrow taken to make bone marrow smear. What's more, the tumor, liver, jejunum and heart tissue of mice were dissected firstly for Small Animal Imaging (KODAK IS in-vivo FX, Kodak), and secondly were placed in the 10% Formaldehyde solution to prepare paraffin section, HE staining for histological examination. […] The tests of CK, CK-MB, LDH, AST, GSH-PX, MDA and SOD were completed in accordance with instructions strictly (Jiancheng Bioengineering Institute, Nanjing, China)."}}, "note": "Where a name gives a salt, the structure may show the parent alone. Read-outs that look alike come from different tables or passages of the source. Marks after values point to notes of the source that are not given here."}
{"smiles": "COc1cccc2c1C(=O)c1c(O)c3c(c(O)c1C2=O)C[C@@](O)(C(=O)CO)C[C@@H]3O[C@H]1C[C@H](N)[C@H](O)[C@H](C)O1", "note": "[Doxorubicin, Doxorubicin hydrochloride]", "values": [{"measurement": "IC50", "setting": "Bel-7402 [1]; Bel-7402, MTT, read-out: IC50", "result": 13.8, "unit": "µg/mL"}, {"measurement": "inhibition at 5 µg/mL", "setting": "Bel-7402 [1]; Bel-7402, drug 0.005 mg/ml, given as fraction, read-out: Inhibitory effect by MTT", "result": 38.8, "unit": "%"}, {"measurement": "inhibition at 10 µg/mL", "setting": "Bel-7402 [1]; Bel-7402, drug 0.01 mg/ml, given as fraction, read-out: Inhibitory effect by MTT", "result": 49.1, "unit": "%"}, {"measurement": "inhibition at 20 µg/mL", "setting": "Bel-7402 [1]; Bel-7402, drug 0.02 mg/ml, given as fraction, read-out: Inhibitory effect by MTT", "result": 61.2, "unit": "%"}, {"measurement": "inhibition at 40 µg/mL", "setting": "Bel-7402 [1]; Bel-7402, drug 0.04 mg/ml, given as fraction, read-out: Inhibitory effect by MTT", "result": 70, "unit": "%"}, {"measurement": "inhibition at 80 µg/mL", "setting": "Bel-7402 [1]; Bel-7402, drug 0.08 mg/ml, given as fraction, read-out: Inhibitory effect by MTT", "result": 79.8, "unit": "%"}, {"measurement": "IC50", "setting": "Caco2 [2]; Caco2, MTT, read-out: IC50", "result": 15.4, "unit": "µg/mL"}, {"measurement": "inhibition at 5 µg/mL", "setting": "Caco2 [2]; Caco2, drug 0.005 mg/ml, given as fraction, read-out: Inhibitory effect by MTT", "result": 34.6, "unit": "%"}, {"measurement": "inhibition at 10 µg/mL", "setting": "Caco2 [2]; Caco2, drug 0.01 mg/ml, given as fraction, read-out: Inhibitory effect by MTT", "result": 50, "unit": "%"}, {"measurement": "inhibition at 20 µg/mL", "setting": "Caco2 [2]; Caco2, drug 0.02 mg/ml, given as fraction, read-out: Inhibitory effect by MTT", "result": 57.9, "unit": "%"}, {"measurement": "inhibition at 40 µg/mL", "setting": "Caco2 [2]; Caco2, drug 0.04 mg/ml, given as fraction, read-out: Inhibitory effect by MTT", "result": 62.3, "unit": "%"}, {"measurement": "inhibition at 80 µg/mL", "setting": "Caco2 [2]; Caco2, drug 0.08 mg/ml, given as fraction, read-out: Inhibitory effect by MTT", "result": 78.9, "unit": "%"}, {"measurement": "inhibition at 5 µg/mL", "setting": "HepG2 [3]; drug 0.005 mg/ml", "result": 34.6, "unit": "%"}, {"measurement": "inhibition at 10 µg/mL", "setting": "HepG2 [3]; drug 0.01 mg/ml", "result": 42.2, "unit": "%"}, {"measurement": "inhibition at 20 µg/mL", "setting": "HepG2 [3]; drug 0.02 mg/ml", "result": 57.3, "unit": "%"}, {"measurement": "inhibition at 40 µg/mL", "setting": "HepG2 [3]; drug 0.04 mg/ml", "result": 66.6, "unit": "%"}, {"measurement": "inhibition at 80 µg/mL", "setting": "HepG2 [3]; drug 0.08 mg/ml", "result": 87.9, "unit": "%"}, {"measurement": "drug concentration in tumor cells", "setting": "Bel-7402 [4]", "result": "2420 ± 30", "unit": "ng/mL"}, {"measurement": "drug concentration in tumor cells", "setting": "HepG2 [5]", "result": "2320 ± 30", "unit": "ng/mL"}, {"measurement": "drug concentration in tumor cells", "setting": "Caco2 [6]", "result": "2730 ± 40", "unit": "ng/mL"}, {"measurement": "median survival time", "setting": "Bel-7402 HCC; Bel-7402, high dose group", "result": 25.5, "unit": "days"}, {"measurement": "deaths during treatment", "setting": "Bel-7402 HCC; Bel-7402, high dose group, 5W", "result": "1 death and 2 deaths and 1 death in the treatment of 2W+, 3W+ and 4W+ respectively"}, {"measurement": "Tumor volume, Before treatment", "setting": "Bel-7402 HCC; Bel-7402 HCC mice, baseline", "result": "0.38 ± 0.28", "unit": "cm^2"}, {"measurement": "Tumor volume (third column, no sub-head; actual volume at end of experiment)", "setting": "Bel-7402 HCC; Bel-7402 HCC mice, high dose", "result": "0.27 ± 0.16", "unit": "cm^2"}, {"measurement": "Tumor volume, After treatment", "setting": "Bel-7402 HCC; Bel-7402 HCC mice, high dose: Doxorubicin 60 mg/m^2, conjugate 300 mg/m^2", "result": "0.42 ± 0.33", "unit": "cm^2"}, {"measurement": "Tumor weight", "setting": "Bel-7402 HCC; Bel-7402 HCC mice, high dose, end of treatment", "result": "1.30 ± 0.41", "unit": "g"}, {"measurement": "Inhibition rate", "setting": "Bel-7402 HCC; Bel-7402 HCC mice, high dose", "result": 32.35, "unit": "%"}, {"measurement": "Inhibition rate", "setting": "Bel-7402 HCC; Bel-7402 HCC mice, high dose, listed as C", "result": "32.35^c %"}, {"measurement": "Mice weight, Before treatment", "setting": "Bel-7402 HCC; mouse, in vivo", "result": "23.15 ± 1.60", "unit": "g"}, {"measurement": "median survival time", "setting": "HepG2 HCC; HepG2, low dose group", "result": 26.5, "unit": "days"}, {"measurement": "deaths during treatment", "setting": "HepG2 HCC; HepG2, low dose group, 5W", "result": "3 deaths and 1 death respectively in the treatment of 3W+ and 4W+"}, {"measurement": "Tumor volume, Before treatment", "setting": "HepG2 HCC; HepG2 HCC mice, baseline", "result": "0.32 ± 0.30", "unit": "cm^2"}, {"measurement": "Tumor volume (third column, no sub-head; actual volume at end of experiment)", "setting": "HepG2 HCC; HepG2 HCC mice, low dose", "result": "0.50 ± 0.46", "unit": "cm^2"}, {"measurement": "Tumor volume, After treatment", "setting": "HepG2 HCC; HepG2 HCC mice, low dose: Doxorubicin 40 mg/m^2, conjugate 200 mg/m^2", "result": "0.64 ± 0.61", "unit": "cm^2"}, {"measurement": "Tumor weight", "setting": "HepG2 HCC; HepG2 HCC mice, low dose, end of treatment", "result": "1.66 ± 0.98", "unit": "g"}, {"measurement": "Mice weight, Before treatment", "setting": "HepG2 HCC; mouse, in vivo", "result": "21.23 ± 4.97", "unit": "g"}, {"measurement": "AST", "setting": "[7]", "result": "989.25 ± 145.74", "unit": "U/L"}, {"measurement": "CK", "setting": "[7]", "result": "1160.50 ± 164.82", "unit": "U/L"}, {"measurement": "CK-Mb", "setting": "[7]", "result": "797.00 ± 155.90^a U/L"}, {"measurement": "GSH-PX", "setting": "[7]", "result": "515.57 ± 146.57^a U"}, {"measurement": "LDH", "setting": "[7]", "result": "6958.50 ± 991.50", "unit": "U/L"}, {"measurement": "MDA", "setting": "[7]", "result": "3.97 ± 0.50", "unit": "nmol/mg"}, {"measurement": "SOD", "setting": "[7]", "result": "135.63 ± 16.22^a U/mg"}, {"measurement": "AST", "setting": "[8]", "result": "1400.83 ± 506.35^a U/L"}, {"measurement": "CK", "setting": "[8]", "result": "1357.83 ± 504.33^ac U/L"}, {"measurement": "CK-Mb", "setting": "[8]", "result": "823.17 ± 342.53", "unit": "U/L"}, {"measurement": "GSH-PX", "setting": "[8]", "result": "462.36 ± 100.90^a U"}, {"measurement": "LDH", "setting": "[8]", "result": "5811.67 ± 3290.44", "unit": "U/L"}, {"measurement": "MDA", "setting": "[8]", "result": "3.43 ± 0.35^a nmol/mg"}, {"measurement": "SOD", "setting": "[8]", "result": "151.60 ± 18.08^a U/mg"}, {"measurement": "PLT", "setting": "[9]", "result": "72.53 ± 25.46 ^a ×10^9/l"}, {"measurement": "RBC", "setting": "[9]", "result": "7.55 ± 1.33 ×10^12/l"}, {"measurement": "WBC", "setting": "[9]", "result": "4.90 ± 3.60 ×10^9/l"}, {"measurement": "PLT", "setting": "[10]", "result": "81.33 ± 27.50^a ×10^9/l"}, {"measurement": "RBC", "setting": "[10]", "result": "6.90 ± 2.32 ×10^12/l"}, {"measurement": "WBC", "setting": "[10]", "result": "3.66 ± 2.58^a ×10^9/l"}, {"measurement": "change of mice weight during treatment", "setting": "[11]", "result": "the most significant"}]}
